Experimental data from PubChem BioAssay AID270 (DTP/NCI, 2004).
“And” between values parts separate entries of the source, which are not always exact repeats. Equal entries are not always repeated. Results filed as inconclusive are left out.

Test system: BDF1 mice, s.c. Lewis lung carcinoma, T/C %
Assay: NCI In Vivo Anticancer Drug Screen. Data for tumor model Lewis Lung Carcinoma (subcutaneous) in B6D2F1 (BDF1) mice
Procedure, shortened: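 First, mice carry a transplantable tumor. Next, groups receive either compound or vehicle. Finally, survival or tumor dimensions in the dosed animals are divided by the corresponding control figure.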

SMILES: C1CN1c1nc(N2CC2)nc(N2CC2)n1
- T/C (endpoint: mean tumor weight, dose: 0.25 mg/kg/injection, schedule: Q01DX011 (ip), vehicle: saline, higher = larger tumour): 72 % of control and 80 % of control
- T/C (endpoint: mean tumor weight, dose: 0.5 mg/kg/injection, schedule: Q01DX011 (ip), vehicle: saline, higher = larger tumour): 44 % of control and 46 % of control
- T/C (endpoint: median survival time, dose: 0.05 mg/kg/injection, schedule: Q01DX009 (ip), vehicle: saline, higher = longer survival): 96 % of control and 113 % of control
- T/C (endpoint: median survival time, dose: 0.1 mg/kg/injection, schedule: Q01DX009 (ip), vehicle: saline, higher = longer survival): 92 % of control and 106 % of control
- T/C (endpoint: median survival time, dose: 0.12 mg/kg/injection, schedule: Q01DX009 (ip), vehicle: saline, higher = longer survival): 118 % of control
- T/C (endpoint: median survival time, dose: 0.13 mg/kg/injection, schedule: Q01DX009 (ip), vehicle: saline, higher = longer survival): 90 % of control
- T/C (endpoint: median survival time, dose: 0.2 mg/kg/injection, schedule: Q01DX009 (ip), vehicle: saline, higher = longer survival): 100 % of control
- T/C (endpoint: median survival time, dose: 0.4 mg/kg/injection, schedule: Q01DX009 (ip), vehicle: saline, higher = longer survival): 89 % of control and 104 % of control
- T/C (endpoint: median survival time, dose: 0.5 mg/kg/injection, schedule: Q01DX009 (ip), vehicle: saline with Tween-80, higher = longer survival): 123 % of control
- T/C (endpoint: median survival time, dose: 0.5 mg/kg/injection, schedule: Q08DX002 (ip), vehicle: saline with Tween-80, higher = longer survival): 102 % of control
- T/C (endpoint: median survival time, dose: 0.5 mg/kg/injection, schedule: Q08DX002 (ip), vehicle: saline, higher = longer survival): 92 % of control and 111 % of control and 123 % of control
- T/C (endpoint: median survival time, dose: 1.0 mg/kg/injection, schedule: Q08DX002 (ip), vehicle: saline with Tween-80, higher = longer survival): 119 % of control
- T/C (endpoint: median survival time, dose: 2.0 mg/kg/injection, schedule: Q08DX002 (ip), vehicle: saline with Tween-80, higher = longer survival): 115 % of control
- T/C (endpoint: median survival time, dose: 2.0 mg/kg/injection, schedule: Q08DX002 (ip), vehicle: saline, higher = longer survival): 155 % of control
- T/C (endpoint: median survival time, dose: 4.0 mg/kg/injection, schedule: Q08DX002 (ip), vehicle: saline, higher = longer survival): 93 % of control
- T/C (endpoint: median survival time, dose: 250.0 micrograms/kg/injection, schedule: Q01DX009 (ip), vehicle: saline, higher = longer survival): 172 % of control
- T/C (endpoint: median survival time, dose: 500.0 micrograms/kg/injection, schedule: Q01DX009 (ip), vehicle: saline, higher = longer survival): 110 % of control
- T/C (endpoint: median tumor weight (est.), dose: 0.12 mg/kg/injection, schedule: Q01DX009 (ip), vehicle: saline with Tween-80, higher = larger tumour): 95 % of control
- T/C (endpoint: median tumor weight (est.), dose: 0.25 mg/kg/injection, schedule: Q01DX009 (ip), vehicle: saline with Tween-80, higher = larger tumour): 81 % of control
- T/C (endpoint: median tumor weight (est.), dose: 0.5 mg/kg/injection, schedule: Q01DX009 (ip), vehicle: saline with Tween-80, higher = larger tumour): 58 % of control
- T/C (endpoint: median tumor weight (est.), dose: 0.5 mg/kg/injection, schedule: Q08DX002 (ip), vehicle: saline with Tween-80, higher = larger tumour): 97 % of control
- T/C (endpoint: median tumor weight (est.), dose: 1.0 mg/kg/injection, schedule: Q08DX002 (ip), vehicle: saline with Tween-80, higher = larger tumour): 86 % of control
- T/C (endpoint: median tumor weight (est.), dose: 2.0 mg/kg/injection, schedule: Q08DX002 (ip), vehicle: saline with Tween-80, higher = larger tumour): 49 % of control

SMILES: CC(=O)OC1C=CC(=O)OC1C1OC1C (stereo not given)
- T/C (endpoint: mean tumor weight, dose: 4.0 mg/kg/injection, schedule: Q01DX011 (ip), vehicle: saline, higher = larger tumour): 105 % of control
- T/C (endpoint: mean tumor weight, dose: 6.0 mg/kg/injection, schedule: Q01DX011 (ip), vehicle: saline, higher = larger tumour): 81 % of control
- T/C (endpoint: mean tumor weight, dose: 9.0 mg/kg/injection, schedule: Q01DX011 (ip), vehicle: saline, higher = larger tumour): 91 % of control
- T/C (endpoint: mean tumor weight, dose: 19.0 mg/kg/injection, schedule: Q01DX011 (ip), vehicle: saline, higher = larger tumour): 62 % of control

SMILES: Nc1ncnc2c1ncn2C1OC(CO)CC1O (stereo not given)
- T/C (endpoint: mean tumor weight, dose: 37.0 mg/kg/injection, schedule: Q01DX011 (ip), vehicle: saline, higher = larger tumour): 101 % of control
- T/C (endpoint: mean tumor weight, dose: 75.0 mg/kg/injection, schedule: Q01DX011 (ip), vehicle: saline, higher = larger tumour): 86 % of control

SMILES: O=P(O)(NCCCl)NCCCl
- T/C (endpoint: median survival time, dose: 12.5 mg/kg/injection, schedule: Q01DX001 (ip), vehicle: saline, higher = longer survival): 114 % of control and 115 % of control
- T/C (endpoint: median survival time, dose: 25.0 mg/kg/injection, schedule: Q01DX001 (ip), vehicle: saline, higher = longer survival): 113 % of control and 114 % of control
- T/C (endpoint: median survival time, dose: 100.0 mg/kg/injection, schedule: Q01DX001 (ip), vehicle: saline, higher = longer survival): 200 % of control and 243 % of control

SMILES: C[C@@H]1C[C@@H]([C@H](O)CC2CC(=O)NC(=O)C2)C(=O)[C@@H](C)C1
- T/C (endpoint: mean tumor weight, dose: 15.0 mg/kg/injection, schedule: Q01DX011 (ip), vehicle: carboxymethylcellulose (CMC), higher = larger tumour): 62 % of control and 81 % of control
- T/C (endpoint: mean tumor weight, dose: 30.0 mg/kg/injection, schedule: Q01DX011 (ip), vehicle: carboxymethylcellulose (CMC), higher = larger tumour): 50 % of control and 57 % of control

SMILES: CC(=O)NNC(=O)c1ccccn1
- T/C (endpoint: median survival time, dose: 25.0 mg/kg/injection, schedule: Q01DX009 (ip), vehicle: Klucel (hydroxypropylcellulose) (HPC), higher = longer survival): 112 % of control
- T/C (endpoint: median survival time, dose: 100.0 mg/kg/injection, schedule: Q01DX009 (ip), vehicle: Klucel (hydroxypropylcellulose) (HPC), higher = longer survival): 102 % of control
- T/C (endpoint: median survival time, dose: 200.0 mg/kg/injection, schedule: Q01DX009 (ip), vehicle: Klucel (hydroxypropylcellulose) (HPC), higher = longer survival): 115 % of control

SMILES: CCN(CC)CCNc1ccc([N+](=O)[O-])c2sc3ccccc3c(=O)c12
- T/C (endpoint: mean tumor weight, dose: 12.5 mg/kg/injection, schedule: Q01DX011 (ip), vehicle: other, higher = larger tumour): 88 % of control
- T/C (endpoint: mean tumor weight, dose: 25.0 mg/kg/injection, schedule: Q01DX011 (ip), vehicle: other, higher = larger tumour): 102 % of control
- T/C (endpoint: mean tumor weight, dose: 50.0 mg/kg/injection, schedule: Q01DX011 (ip), vehicle: other, higher = larger tumour): 84 % of control
